Source: patent US11951094B2, “TLR2 modulator compounds, pharmaceutical compositions and uses thereof” (Axial Therapeutics, Inc., priority 2020, dated 2024)

How the values were obtained:
Assay type in all cases: cell-based
TLR2 [1] = biological target: T1, TLR2 (Homo sapiens, UniProt O60603); assay: TLR2 in vitro functional assay, cytokine release from human monocytic cell line THP-1; conditions: THP-1 human monocytic cell line, average of all runs
Protocol: Cells of the immune system respond to TLR agonists in part by secreting cytokines. Functional assays for TLR2 agonists measure cytokine release from purified immune cells or immortalized cell lines derived from immune cells. Cytokine release is measured by standard ELISA approaches or multiplexed analysis using the Meso Scale Discovery (MSD) platform.
Following assay measurements utilizing either HEK-Blue detection or cytokine release, all data is analyzed with the GraphPad Prism8 statistical package to determine EC50, binding and activity metrics for the TLR2 modulators. […]
Numerous cell lines derived from various cell types can respond to TLR2 agonists with stereotyped cytokine and chemokine secretion. In particular, cell lines derived from macrophages respond robustly to TLR2 agonists by secreting a wide array of cytokines, including (but not limited to) TNF-alpha, IL-1, IL-10 and IL-12. The human monocytic cell line THP-1, the mouse macrophage line RAW-264.7, and the rat macrophage line NR8383 were used. For each assay, the respective cell lines were plated into 96-well plates overnight and then treated the following day with various TLR2-engaging compounds at varying concentrations. The next day, supernatants were collected and assayed by multiplex immunodetection for cytokines released (MSD detection kits for respective species).
Data provided in Table 5 is generated using protocols described in Example 45 and 46.

TLR2 [2] = biological target: T1, TLR2; assay: TLR2 agonist screening assay, HEK-Blue TLR2 reporter cell line (NF-kB-driven SEAP, absorbance at 600 nm); design: host or cells: HEK-293 (HEK-Blue TLR2 reporter cell line); conditions: HEK-Blue TLR2 reporter cells, agonist mode
Outline: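 Read-out: SEAP colour change, A600, after overnight agonist exposure. Cells: HEK-293 overexpressing TLR2, NF-kB-SEAP reporter, ~40,000/well, plated 16-24 h prior.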

TLR2 [3] = biological target: T2, TLR2 (Mus musculus, UniProt Q9QUN7); assay: TLR2 functional assay, cytokine release from RAW 264.7 mouse macrophage cell line; conditions: average of all runs
T2 construct: endogenous in cells; host or cells: RAW 264.7
T2 sequence (Q9QUN7 25-784): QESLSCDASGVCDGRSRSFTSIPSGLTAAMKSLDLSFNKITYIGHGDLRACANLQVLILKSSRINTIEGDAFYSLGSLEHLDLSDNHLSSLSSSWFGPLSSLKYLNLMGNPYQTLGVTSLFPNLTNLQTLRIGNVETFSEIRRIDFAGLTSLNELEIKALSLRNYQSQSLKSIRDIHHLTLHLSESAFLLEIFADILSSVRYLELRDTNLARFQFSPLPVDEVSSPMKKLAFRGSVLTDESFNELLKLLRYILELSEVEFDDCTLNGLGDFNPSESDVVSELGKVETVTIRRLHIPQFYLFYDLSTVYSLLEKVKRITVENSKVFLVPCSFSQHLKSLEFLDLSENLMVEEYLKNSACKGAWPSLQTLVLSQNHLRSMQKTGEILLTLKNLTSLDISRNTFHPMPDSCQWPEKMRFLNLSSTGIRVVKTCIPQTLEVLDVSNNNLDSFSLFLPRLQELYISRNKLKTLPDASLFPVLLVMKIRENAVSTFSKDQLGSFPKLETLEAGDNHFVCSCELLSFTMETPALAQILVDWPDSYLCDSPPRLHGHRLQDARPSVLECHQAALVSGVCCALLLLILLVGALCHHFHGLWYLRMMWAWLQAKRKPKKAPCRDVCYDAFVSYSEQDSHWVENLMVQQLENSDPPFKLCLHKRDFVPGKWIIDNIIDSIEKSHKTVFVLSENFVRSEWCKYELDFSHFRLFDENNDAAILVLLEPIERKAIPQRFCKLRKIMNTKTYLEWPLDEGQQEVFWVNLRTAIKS
Outline: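 RAW 264.7 cells plated (about 40,000 per well) and treated with compounds at varying concentrations for 6–24 h (or overnight). Released cytokines in supernatant (e.g. TNF-alpha, IL-1, IL-10, IL-12) measured by ELISA or MSD multiplex; EC50 fitted.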

TLR2 [4] = biological target: T1, TLR2; assay: TLR2 antagonist screening assay, HEK Blue hTLR2 cells, competition with diprovocim; design: host or cells: HEK Blue hTLR2 cells
From the text: TLRs signal through ligand-mediated dimerization or multimerization. TLR2 may partner with TLR1 or TLR6 to produce an agonist signal. Compounds that prevent agonist signaling, antagonists, may interfere with proper dimerization or with downstream signaling. The following assay was developed to identify and characterize novel TLR2 antagonists.
The in vitro TLR2 assay consists of a cell line that responds to TLR2 engagement by producing a factor that elicits a color change in the culture media and can be readily measured by various colorimetric detection methods. This assay enables the identification of existing and novel compounds that engage TLR2. Treating reporter cells with putative TLR2 antagonists will diminish the reporter response to TLR2 agonists.
TLR2 antagonists were screened for TLR2 binding and blocking with a competition assay. […] The assay was performed with Invivogen HEK Blue cells, which express the human TLR2 receptor as well as NFkB-inducible secreted Alkaline Phosphatase. Alkaline Phosphatase activity was proportional to TLR2 activation, and thus served as a colorimetric reporter.
HEK Blue hTLR2 cells (Invivogen) were grown in DMEM with 10% FBS (Seradigm). Cells were seeded at 40,000 cells/well in 96-well plates and incubated overnight to adhere. Media was replaced with 200 uL/well HEK Blue Detection Medium (Invivogen). […] Cells incubated for 16-24 hours, then absorbance at 600 nm was read on a SpectraMax M2 (Molecular Devices). […] Four parameter dose response curves were fit according to the following model, and IC50 values were reported: Y=Bottom+(Top-Bottom)/(1+(IC50/X)^HillSlope)
Where X is the antagonist concentration, Y is the normalized absorbance, Top and Bottom are the plateaus, IC50 is the concentration at half-maximal inhibition, and HillSlope is the slope factor.
• 1. HEK-Blue TLR2 cells are diluted in complete DME culture medium and plated into 96-well plates at 40,000 cells per well and cultured overnight. • 2. After 16-24 hours in culture, the media is removed and replaced with 200 microliters per well of HEK-Blue Detection media. • 3. TLR2 antagonists are diluted 100-fold from DMSO stocks into each well, yielding a final DMSO concentration of 1% in all wells. Reporter cells are treated for 1-2 hours, then treated with TLR2 agonist diluted to the EC50-70 concentration. • 4. Treated cells are cultured overnight and the following day are assayed in plate reader for Absorbance at 600 nanometer.

T1 sequence (O60603 21-784): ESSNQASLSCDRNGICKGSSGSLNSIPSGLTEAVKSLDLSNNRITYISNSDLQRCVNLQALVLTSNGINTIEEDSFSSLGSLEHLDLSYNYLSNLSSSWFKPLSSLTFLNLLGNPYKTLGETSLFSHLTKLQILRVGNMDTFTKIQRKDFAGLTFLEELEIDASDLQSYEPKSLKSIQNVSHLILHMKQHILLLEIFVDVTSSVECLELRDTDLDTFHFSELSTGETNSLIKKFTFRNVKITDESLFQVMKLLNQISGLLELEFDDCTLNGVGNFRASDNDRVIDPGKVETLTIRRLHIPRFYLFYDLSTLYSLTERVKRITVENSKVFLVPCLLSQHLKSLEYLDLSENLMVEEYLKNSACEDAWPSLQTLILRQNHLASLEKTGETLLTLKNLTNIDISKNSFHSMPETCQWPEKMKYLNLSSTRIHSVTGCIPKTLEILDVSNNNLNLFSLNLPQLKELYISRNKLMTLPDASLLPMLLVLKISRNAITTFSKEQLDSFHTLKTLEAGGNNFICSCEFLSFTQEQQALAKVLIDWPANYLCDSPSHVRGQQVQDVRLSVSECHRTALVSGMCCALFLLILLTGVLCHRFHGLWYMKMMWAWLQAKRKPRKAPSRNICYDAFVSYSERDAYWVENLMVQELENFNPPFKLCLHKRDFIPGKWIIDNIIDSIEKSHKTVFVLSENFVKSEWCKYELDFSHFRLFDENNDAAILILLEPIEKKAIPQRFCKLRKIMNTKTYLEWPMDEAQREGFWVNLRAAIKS

Row | Compound | EC50 (TLR2 [1]) | EC50 (TLR2 [2]; average of all runs (Table 4)) | EC50 (TLR2 [3]) | IC50 (TLR2 [4]) | EC50 (TLR2 [2]; average of all runs (Table 3))
1 | CCCCCCCCCCCCCCNC(=O)[C@H]1CN(C(=O)c2ccc(C(=O)N3C[C@@H](C(=O)N[C@H]4C[C@@H]4c4ccccc4)[C@H](C(=O)N[C@H]4C[C@@H]4c4ccccc4)C3)cc2)C[C@H]1OC (relative stereo) [Compound 108, (3S,4S)-1-(4-((3S*,4S*)-3-methoxy-4-(tetradecylcarbamoyl)pyrrolidine-1-carbonyl)benzoyl)-N3,N4-bis((1S,2R)-2-phenylcyclopropyl)pyrrolidine-3,4-dicarboxamide] | 0.1 to 50 nM | 0.1 to 50 nM | 51 to 350 nM |  | 
2 | CCCCCCCC(=O)N1CCCN(S(=O)(=O)c2ccc(C(=O)N3C[C@@H](C(=O)N[C@H]4C[C@@H]4c4ccccc4)[C@H](C(=O)N[C@H]4C[C@@H]4c4ccccc4)C3)cc2)CC1C(=O)NCCCCCC (single isomer, unassigned) [Compound 203, (3S,4S)-1-(4-(((R*)-3-(hexylcarbamoyl)-4-octanoyl-1,4-diazepan-1-yl)sulfonyl)benzoyl)-N3,N4-bis((1S,2R)-2-phenylcyclopropyl)pyrrolidine-3,4-dicarboxamide] |  | > 1000 nM |  | 351 to 1000 nM | 
3 | CCCCCCCCCCCCCCC(=O)N[C@H]1CN(C(=O)c2ccc(C(=O)N3C[C@@H](C(=O)N[C@H]4C[C@@H]4c4ccccc4)[C@H](C(=O)N[C@H]4C[C@@H]4c4ccccc4)C3)cc2)C[C@@H]1OC [Compound 101, (3S,4S)-1-(4-((3S,4S)-3-methoxy-4-pentadecanamidopyrrolidine-1-carbonyl)benzoyl)-N3,N4-bis((1S,2R)-2-phenylcyclopropyl) pyrrolidine-3,4-dicarboxamide] | 0.1 to 50 nM | 0.1 to 50 nM | > 1000 nM |  | 
4 | CCCCCCCC(=O)N1CCN(S(=O)(=O)c2ccc(C(=O)N3C[C@@H](C(=O)N[C@H]4C[C@@H]4c4ccccc4)[C@H](C(=O)N[C@H]4C[C@@H]4c4ccccc4)C3)cc2)C[C@H]1C(=O)NCCCCCC [Compound 160, (3S,4S)-1-(4-(((S)-3-(hexylcarbamoyl)-4-octanoylpiperazin-1-yl)sulfonyl)benzoyl)-N3,N4-bis((1S,2R)-2-phenylcyclopropyl)pyrrolidine-3,4-dicarboxamide] |  | > 1000 nM |  | 351 to 1000 nM | 
5 | CCCCCCCCCCCCCCNC(=O)[C@@H]1CN(C(=O)c2ccc(C(=O)N3C[C@@H](C(=O)N[C@H]4C[C@@H]4c4ccccc4)[C@H](C(=O)N[C@H]4C[C@@H]4c4ccccc4)C3)cc2)CCN1C(C)=O [Compound 162, (3S,4S)-1-(4-((S)-4-acetyl-3-(tetradecylcarbamoyl)piperazine-1-carbonyl)benzoyl)-N3,N4-bis((1S,2R)-2-phenylcyclopropyl) pyrrolidine-3,4-dicarboxamide] |  | > 1000 nM |  | 1 to 350 nM | 
6 | CCCCCCCCCCCCCCN1CC(=O)N[C@@H](CNC(=O)c2ccc(C(=O)N3C[C@@H](C(=O)N[C@H]4C[C@@H]4c4ccccc4)[C@H](C(=O)N[C@H]4C[C@@H]4c4ccccc4)C3)cc2)C1=O [Compound 177, (3S,4S)-1-(4-((((S)-3,6-dioxo-4-tetradecylpiperazin-2-yl)methyl)carbamoyl)benzoyl)-N3,N4-bis((1S,2R)-2-phenylcyclopropyl)pyrrolidine-3,4-dicarboxamide] |  | > 1000 nM |  | 1 to 350 nM | 
7 | CCCCCCN1C(=O)[C@H](CNC(=O)c2ccc(C(=O)N3C[C@@H](C(=O)N[C@H]4C[C@@H]4c4ccccc4)[C@H](C(=O)N[C@H]4C[C@@H]4c4ccccc4)C3)cc2)NC(=O)[C@@H]1CCCCC [Compound 176, (3S,4S)-1-(4-((((2S,5S)-4-hexyl-3,6-dioxo-5-pentylpiperazin-2-yl)methyl)carbamoyl)benzoyl)-N3,N4-bis((1S,2R)-2-phenylcyclopropyl)pyrrolidine-3,4-dicarboxamide] |  | > 1000 nM |  | 1 to 350 nM | 
8 | CCCCCCCCCCCCCCNC(=O)C1CN(C(=O)c2ccc(C(=O)N3C[C@@H](C(=O)N[C@H]4C[C@@H]4c4ccccc4)[C@H](C(=O)N[C@H]4C[C@@H]4c4ccccc4)C3)cc2)CCN1C(C)=O (stereo partly shown) [Compound 024] |  |  |  | 351 to 1000 nM | > 1000 nM
9 | O=C(N[C@H]1C[C@@H]1c1ccccc1)[C@@H]1CN(C(=O)c2ccc(C(=O)N3CC[C@@H](n4cnc(-c5ccc(C(F)(F)F)cc5)c4)C3)cc2)C[C@H]1C(=O)N[C@H]1C[C@@H]1c1ccccc1 [Compound 277] |  | > 1000 nM |  | 1 to 350 nM | 
10 | CCCCCCCCCCCCCCNC(=O)[C@@H]1CN(C(=O)c2ccc(C(=O)N3C[C@@H](C(=O)N[C@H]4C[C@@H]4c4ccccc4)[C@H](C(=O)N[C@H]4C[C@@H]4c4ccccc4)C3)cc2)C[C@@H]1O (single isomer, unassigned) [Compound 044, (3S,4S)-1-(4-((3R*,4R*)-3-hydroxy-4-(tetradecylcarbamoyl)pyrrolidine-1-carbonyl)benzoyl)-N3,N4-bis((1S,2R)-2-phenylcyclopropyl)pyrrolidine-3,4-dicarboxamide] | 0.1 to 50 nM |  |  |  | 0.1 to 50 nM
11 | CCCCCCCCCCCCCCNC(=O)[C@@H]1CN(C(=O)c2ccc(C(=O)N3C[C@@H](C(=O)N[C@H]4C[C@@H]4c4ccccc4)[C@H](C(=O)N[C@H]4C[C@@H]4c4ccccc4)C3)cc2)C[C@H]1OC [Compound 109, (3S,4S)-1-(4-((3S,4R)-3-methoxy-4-(tetradecylcarbamoyl)pyrrolidine-1-carbonyl)benzoyl)-N3,N4-bis((1S,2R)-2-phenylcyclopropyl)pyrrolidine-3,4-dicarboxamide] | 0.1 to 50 nM | 0.1 to 50 nM | > 1000 nM |  | 
12 | CCCCCCCNC(=O)[C@@H]1CN(C(=O)c2ccc(C(=O)N3C[C@@H](C(=O)N[C@H]4C[C@@H]4c4ccccc4)[C@H](C(=O)N[C@H]4C[C@@H]4c4ccccc4)C3)cc2)C[C@@H]1OCCCCCCC (relative stereo) [Compound 063, (3S,4S)-1-(4-((3R*,4R*)-3-(heptylcarbamoyl)-4-(heptyloxy)pyrrolidine-1-carbonyl)benzoyl)-N3,N4-bis((1S,2R)-2-phenylcyclopropyl)pyrrolidine-3,4-dicarboxamide] | 0.1 to 50 nM |  |  |  | 351 to 1000 nM
13 | CCCCCCCC(=O)N1CC(=O)N(Cc2ccc(C(=O)N3C[C@@H](C(=O)N[C@H]4C[C@@H]4c4ccccc4)[C@H](C(=O)N[C@H]4C[C@@H]4c4ccccc4)C3)cc2)C[C@H]1C(=O)NCCCCCC [Compound 076, (3S,4S)-1-(4-(((S)-5-(hexylcarbamoyl)-4-octanoyl-2-oxopiperazin-1-yl)methyl)benzoyl)-N3,N4-bis((1S,2R)-2-phenylcyclopropyl)pyrrolidine-3,4-dicarboxamide] | 0.1 to 50 nM |  |  |  | 0.1 to 50 nM
14 | CCCCCCCCCCCCCCNC(=O)[C@H]1CN(C(=O)c2ccc(C(=O)N3C[C@@H](C(=O)N[C@H]4C[C@@H]4c4ccccc4)[C@H](C(=O)N[C@H]4C[C@@H]4c4ccccc4)C3)cc2)C[C@@H]1OC [Compound 110, (3S,4S)-1-(4-((3R,4S)-3-methoxy-4-(tetradecylcarbamoyl)pyrrolidine-1-carbonyl)benzoyl)-N3,N4-bis((1S,2R)-2-phenylcyclopropyl)pyrrolidine-3,4-dicarboxamide] | 0.1 to 50 nM | 0.1 to 50 nM |  |  | 
